Data taken from paper PMC9502953 (Molecules, 2022).

Key:
[1] = design: method as in ref 12, 43, 3, 44, 45, 46 (in order of compounds); settings: similar quantities; 46 (in order of compounds); cited from earlier work
[2] = Fe^3+ reducing ability (K3Fe(CN)6 reduction, absorbance at 700 nm); settings: 30 μg/mL concentration
Protocol: (§1) The reaction was terminated by adding 1 mL of trichloroacetic acid (TCA, 10%). Following this, 0.5 mL of newly prepared FeCl3 (0.1%) was transferred, and the absorptions were measured at 700 nm. Deionized water was used as the blank control. […] Finally, after 20 min, absorbances were recorded at 450 nm.

[3] = DPPH radical scavenging (Blois method, 517 nm)
Protocol: (§2) The DPPH radical scavenging activities were assessed by measuring the absorbance at 517 nm after keeping in the dark for 30 min [81]. […] ABTS solution (7.0 mM) was prepared using K2S2O8 ([…]), and the absorbance of the control was set to 0.700 ± 0.025 at 734 nm on dilution with buffer solution (0.1 M and pH 7.4). […] The control included only ABTS radical solution [82]. […] Briefly, 0.2 mL of FeCl3 (50 mM) and 1 mL of DMPD solution were added to the buffer (pH 5.3, 100 mM). The concentrations of all of the samples were 10–30 μg/mL. The total volume was adjusted to […] using deionized water. An aliquot (1 mL) of DMPD radicals was added, and the absorbance was recorded at 505 nm. The radical scavenging results were expressed as half maximal scavenging concentrations (IC50, μg/mL).

[4] = ABTS radical scavenging (734 nm)
Protocol: as §2

[5] = target: T1, acetylcholinesterase (AChE) (Electrophorus electricus, UniProt O42275); assay: biochemical
T1 construct: purchased Sigma-Aldrich GmbH (Steinheim, Germany)
T1 sequence (O42275 24-633): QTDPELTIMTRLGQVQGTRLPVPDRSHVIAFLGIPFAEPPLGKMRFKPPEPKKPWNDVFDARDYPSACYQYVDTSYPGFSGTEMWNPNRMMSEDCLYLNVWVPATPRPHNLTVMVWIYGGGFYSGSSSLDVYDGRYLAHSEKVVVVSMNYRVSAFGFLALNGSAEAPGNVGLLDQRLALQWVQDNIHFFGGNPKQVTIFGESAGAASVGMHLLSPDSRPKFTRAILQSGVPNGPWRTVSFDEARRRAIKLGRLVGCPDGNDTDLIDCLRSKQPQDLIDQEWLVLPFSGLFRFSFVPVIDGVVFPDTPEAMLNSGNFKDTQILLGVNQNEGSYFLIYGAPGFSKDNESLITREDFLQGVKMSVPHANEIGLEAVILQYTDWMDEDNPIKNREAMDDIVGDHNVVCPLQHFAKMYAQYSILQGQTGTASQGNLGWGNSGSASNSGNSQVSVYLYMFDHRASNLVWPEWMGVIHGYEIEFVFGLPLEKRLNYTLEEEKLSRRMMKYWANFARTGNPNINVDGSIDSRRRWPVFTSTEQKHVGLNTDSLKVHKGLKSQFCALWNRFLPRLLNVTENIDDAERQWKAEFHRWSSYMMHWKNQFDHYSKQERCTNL
Protocol: AChI and BChI were used as substrates for enzymatic reactions.
(§3) The Ki values and other parameters were calculated from Lineweaver-Burk graphs as described priorly. The Ki values were taken out from this graph. All of the analyses were independently conducted in triplicate, and the results are expressed as mean values ± SD.

[6] = Cu^2+ reducing ability (CUPRAC, neocuproine, absorbance at 450 nm); settings: 30 μg/mL concentration
Protocol: as §1

[7] = target: T2, human carbonic anhydrase II (hCA II) (Homo sapiens, UniProt P00918); assay: Carbonic anhydrase II inhibition (esterase activity, 348 nm); type: biochemical
T2 construct: from tissue; host or cells: human erythrocytes
Protocol: The CA II isozyme was purified from human erythrocytes using Sepharose-4B-Tirozyne-sulfanylamide affinity column chromatography. Further, it was precipitated, and the serum was separated and adjusted with solid Tris to pH 8.7. The sample was then loaded to the affinity chromatography column and equilibrated with Tris-Na2SO4/HCl (pH 8.7, 22 mM/25 mM). CA II was eluted with sodium acetate/NaClO4 (0.5 M, pH 5.6, 25 °C). Protein quantity during the purification study was determined using the Bradford method. Bovine serum albumin was used as the standard protein [93]. The purity of CA II was controlled using SDS-PAGE [94]. During purification and inhibition of CA II, esterase activities were performed following the change in absorbance at 348 nm
as §3

[8] = DMPD radical scavenging (505 nm)
Protocol: as §2

[9] = design: method as in ref 12, 3, 47, 48, 49, 50 (in order of compounds); settings: same concentration; 50 (in order of compounds); cited from earlier work
[10] = design: method as in ref 47, 48, 3, 53, 49, 48, 12, 53, 50 (in order of compounds); settings: 50 (in order of compounds); cited from earlier work
[11] = cited from earlier work; for DPPH^• removal IC50 (literature): 50 (in order of compounds); for IC50 values for comparison (radical scavenging; assay not given, paragraph on DPPH): 53 (in order of compounds)

| Molecule | Fe^3+-reducing absorbance values (previous studies) [1] | Fe^3+ Reducing λ (700 nm) absorbance [2] | DPPH^• Scavenging IC50 [3] | ABTS^•+ Scavenging IC50 [4] | Cu^2+ Reducing λ (450 nm) absorbance [6] | DMPD^•+ Scavenging IC50 [8] | Cu^2+-reducing absorbance values (natural phenolics) [9] | DMPD^•+ removing IC50 (literature) [10] | DPPH^• removal IC50 (literature) [11] | IC50 values for comparison (radical scavenging; assay not given, paragraph on DPPH) [11] | also measured |
| --- | --- | --- | --- | --- | --- | --- | --- | --- | --- | --- | --- |
| O=c1[nH]c(=O)c2[nH]c(=O)[nH]c2[nH]1 [uric acid] | 0.432 | – | – | – | – | – | – | – | – | – | – |
| COc1ccc2c(c1O)-c1c(O)c(OC)cc3c1[C@H](C2)[N+](C)(C)CC3 [Magnofluorine] | – | 0.967 | 10.58 µg/mL | 27.61 µg/mL | 0.458 | 15.26 µg/mL | – | – | – | – | IC50 [5]: 10 nM; IC50 [7]: 26 nM; Ki ([7]; Lineweaver-Burk graphs, mean ± SD, read-out: Ki CA II): 25.4 ± 1.1 nM |
| O=C1c2c(O)cc(O)cc2OC(c2ccc(O)c(O)c2)C1O (centres unmarked) [taxifolin] | – | – | – | – | – | – | 0.750 | 173.25 µg/mL | 77.00 µg/mL | 0.83 µg/mL | – |
| O=C(/C=C/c1ccc(O)c(O)c1)OCCc1ccccc1 [CAPE, caffeic acid phenethyl ester] | 2.509 | – | – | – | – | – | – | 26.70 µg/mL | 3.30 µg/mL | 9.80 µg/mL | – |
| Cc1c(C)c2c(c(C)c1O)CC[C@@](C)(CCC[C@H](C)CCC[C@H](C)CCCC(C)C)O2 [α-Tocopherol] | – | 0.957 | 11.31 µg/mL | 8.73 µg/mL | 0.816 | 7.11 µg/mL | – | – | – | – | – |
| O=c1oc2cc(O)ccc2c2oc3cc(O)ccc3c12 [coumestrol] | 0.739 | – | – | – | – | – | 0.739 | 12.81 µg/mL | – | 25.95 µg/mL | – |
| CCCCCc1cc(O)cc(O)c1 [olivetol] | – | – | – | – | – | – | 1.314 | 19.25 µg/mL | 17.77 µg/mL | 1.94 µg/mL | – |
| Cc1cc(C(C)(C)C)c(O)c(C(C)(C)C)c1 [BHT, butylated hydroxytoluene] | – | 0.952 | 25.95 µg/mL | 6.99 µg/mL | 2.044 | 8.72 µg/mL | – | – | – | – | – |
| L-Adrenaline | – | – | – | – | – | – | – | 15.6 µg/mL | 30.6 µg/mL | 6.93 µg/mL | – |
| COc1ccc(O)c(C(C)(C)C)c1 [BHA, butylated hydroxyanisole] | – | 2.347 | 10.10 µg/mL | 5.07 µg/mL | 2.216 | 11.99 µg/mL | – | – | – | – | – |
| tannic acid | 2.428 | – | – | – | – | – | – | – | – | – | – |
| CC(=O)c1c(O)c(C)c(O)c2c1OC1=CC(=O)C(C(C)=O)C(=O)C12C (centres unmarked) [usnic acid] | 0.278 | – | – | – | – | – | 0.277 | 33.00 µg/mL | 49.50 µg/mL | 10.41 µg/mL | – |
| Cc1c(C)c2c(c(C)c1O)CCC(C)(C(=O)O)O2 (centres unmarked) [Trolox] | – | 2.119 | 7.059 µg/mL | 6.16 µg/mL | 1.548 | 4.33 µg/mL | – | – | – | – | – |
| C=CCc1ccc(O)c(OC)c1 [eugenol] | – | – | – | – | – | – | 0.762 | 10.04 µg/mL | 16.06 µg/mL | 7.84 µg/mL | – |
| O=C(O)/C=C/c1ccc(O)c(O)c1 [caffeic acid] | 2.769 | – | – | – | – | – | – | – | – | – | – |
